Columns and labels:
h-DHODH = molecular target: T1, h-DHODH (Homo sapiens, UniProt Q02127); assay: Dihydro-orotate dehydrogenase inhibition assay (U937 membrane preparations, DCIP reduction); assay type: biochemical; settings: U937 membrane preparation; for inhibition at 0.3 µM: compound tested at 0.3 uM (footnote *)
T1 construct: endogenous in cells; host or cells: U937 cells (membrane fraction, solubilised with 1% octyl glucoside)
Procedure: Dihydro-Orotate Dehydrogenase Inhibition Assay
Dihydro-orotate dehydrogenase (DHODH) catalyzes the […] of dihydro-orotate to orotate during de novo biosynthesis of pyrimidines Inhibition of DHODH activity in U937 membrane preparations was measured by the dihydro-orotate driven reduction of 2,6 dichloroindophenol (DCIP).
U937 cells were homogenized in 20 mM Tris/HCl (pH 7.2) containing 1 mM EDTA. […] Following washes, the pellet was dissolved in 20 mM Tris/HCl containing 150 mM NaCl, 1 mM EDTA, and 1% octyl glucoside on ice for 1 h. Particulate matter was removed by centrifugation at 100000×g for 1 h at 4° C. […] The mixture was incubated at 37° C. for 4 h before measuring the change in absorbance on a plate reader (BMG Labtech., Germany) at 600 nm. Data were analyzed using GraphPad Prism. IC50 for each compound was determined based on the percent inhibition of dihydro-orotate […].

IL-17 = assay: Inhibition of IL-17 release from mouse splenocytes (PMA + ionomycin, ELISA); assay type: cell-based, Balb/c mice; settings: Splenocyte, 10 μM, 3 h
Procedure: 2. Inhibition of IL-17 Release from Mouse Splenocytes:
Splenocytes isolated from Balb/c mice were re-suspended in RPMI medium at a concentration of 1×10^6 cells/ml and seeded in a 6 well plate. Cells were incubated with desired concentrations of the inhibitor for 15 min prior to induction with 10 ng/ml PMA+1 μM ionomycin. After a 3 h incubation, supernatant was collected and analyzed for IL-17 concentration using an ELISA kit. Data were analyzed using GraphPad Prism. IC50 values for each compound were determined based on the percent inhibition due to the test compound compared to the control.

T1 sequence (Q02127 whole entry): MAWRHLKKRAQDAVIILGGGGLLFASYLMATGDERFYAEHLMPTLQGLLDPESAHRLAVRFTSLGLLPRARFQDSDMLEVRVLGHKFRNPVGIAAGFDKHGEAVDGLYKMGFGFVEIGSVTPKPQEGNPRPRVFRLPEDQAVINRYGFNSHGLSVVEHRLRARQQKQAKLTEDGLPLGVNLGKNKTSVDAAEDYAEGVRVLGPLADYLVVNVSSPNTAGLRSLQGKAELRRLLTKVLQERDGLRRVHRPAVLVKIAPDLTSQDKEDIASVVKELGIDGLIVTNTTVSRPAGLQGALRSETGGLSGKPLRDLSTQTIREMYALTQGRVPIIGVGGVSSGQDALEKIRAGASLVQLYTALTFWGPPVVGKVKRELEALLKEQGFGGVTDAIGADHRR

| SMILES | inhibition at 1 µM (h-DHODH) [%] | IC50 (h-DHODH) [nM] | inhibition at 10 µM (IL-17) [%] | inhibition at 0.3 µM (h-DHODH) [%] | inhibition at 10 µM (h-DHODH; compound tested at 10 uM) [%] |
| --- | --- | --- | --- | --- | --- |
| COc1ccc(Cl)c(-c2cc(F)c(NC(=O)c3ccccc3C(=O)O)c(F)c2)c1 [Example 45, 2-(2′-Chloro-3,5-difluoro-5′-methoxybiphenyl-4-ylcarbamoyl)benzoic acid] | 96.2 | 44.1 | 48.5 | – | – |
| Cc1nn(C)c2ccc(-c3cc(F)c(NC(=O)c4ccccc4C(=O)O)c(F)c3)cc12 [Example 54, 2-[4-(1,3-Dimethyl-1H-indazol-5-yl)-2,6-difluorophenylcarbamoyl]benzoic acid] | – | – | 22.6 | – | – |
| O=C(O)c1ccccc1C(=O)Nc1c(F)cc(-c2ccc3c(c2)OCO3)cc1F [Example 47, 2-[4-(Benzo[d][1,3]dioxol-5-yl)-2,6-difluorophenylcarbamoyl]benzoic acid] | 55.2 | – | 6.22 | – | – |
| COc1cc(F)cc(-c2cc(F)c(NC(=O)c3ccccc3C(=O)O)c(F)c2)c1 [Example 46, 2-(3,3′,5-Trifluoro-5′-methoxybiphenyl-4-ylcarbamoyl)benzoic acid] | 56 | – | 3.69 | – | – |
| Cc1n[nH]c2ccc(-c3cc(F)c(NC(=O)c4ccccc4C(=O)O)c(F)c3)cc12 [Example 64, 2-[2,6-difluoro-4-(3-methyl-1H-indazol-5-yl)phenylcarbamoyl]benzoic acid] | 23.4 | – | 15.3 | – | – |
| CCOc1cccc(-c2cc(F)c(NC(=O)c3ccccc3CO)c(Cl)c2)c1 [Example 36, N-(3-Chloro-3′-ethoxy-5-fluorobiphenyl-4-yl)-2-(hydroxymethyl)benzamide] | – | – | 45.5 | – | – |
| COc1cc(-c2cc(F)c(NC(=O)c3ccccc3C(=O)O)c(Cl)c2)ccc1Cl [Example 60, 2-(3,4′-Dichloro-5-fluoro-3′-methoxybiphenyl-4-ylcarbamoyl)benzoic acid] | 41.8 | – | 20.3 | – | – |
| O=C(O)c1ccccc1C(=O)Nc1ccc(-c2ccccc2)cc1 [Example 85, 2-(biphenyl-4-ylcarbamoyl)benzoic acid] | – | – | 13 | 15.1 | – |
| O=C(O)c1ccccc1C(=O)Nc1c(F)cc(-c2ccc3c(c2)OCCO3)cc1Cl [Example 67, 2-[2-chloro-4-(2,3-dihydrobenzo[b][1,4]dioxin-6-yl)-6-fluorophenylcarbamoyl]benzoic acid] | 54.1 | – | 3.56 | – | – |
| CCOc1cccc(-c2cc(F)c(NC(=O)c3ccccc3CO)c(F)c2)c1 [Example 37, N-(3′-Ethoxy-3,5-difluorobiphenyl-4-yl)-2-(hydroxymethyl)benzamide] | 14.8 | – | 17.8 | – | – |
| COc1cc(-c2cc(F)c(NC(=O)c3ccccc3C(=O)O)c(F)c2)ccc1F [Example 62, 2-(3,4′,5-trifluoro-3′-methoxybiphenyl-4-ylcarbamoyl)benzoic acid] | 12.4 | – | 8.34 | – | – |
| O=C(O)c1ccccc1C(=O)Nc1c(F)cc(-c2cccc(OCC(F)(F)F)c2)cc1F [Example 83, 2-[3,5-difluoro-3′-(2,2,2-trifluoroethoxy)biphenyl-4-ylcarbamoyl]benzoic acid] | – | – | 8.79 | 43.6 | – |
| CCOc1cccc(-c2cc(F)c(NC(=O)c3ccccc3C(=O)O)c(Cl)c2)c1F [Example 66, 2-(3-chloro-3′-ethoxy-2′,5-difluorobiphenyl-4-ylcarbamoyl)benzoic acid] | 87.5 | 84.4 | – | – | – |
| CCc1cccc(-c2cc(F)c(NC(=O)c3ccccc3C(=O)O)c(Cl)c2)c1 [Example 65, 2-(3-chloro-3′-ethyl-5-fluorobiphenyl-4-ylcarbamoyl)benzoic acid] | 71.2 | 146 | 11 | – | – |
| COc1cc(Cl)cc(-c2cc(F)c(NC(=O)c3ccccc3C(=O)O)c(F)c2)c1 [Example 55, 2-(3′-Chloro-3,5-difluoro-5′-methoxybiphenyl-4-ylcarbamoyl)benzoic acid] | 44.5 | – | 5.66 | – | – |
| O=C(O)c1ccccc1C(=O)Nc1c(F)cc(-c2cccc(OC(F)F)c2)cc1F [Example 43, 2-[3′-(Difluoromethoxy)-3,5-difluorobiphenyl-4-ylcarbamoyl]benzoic acid] | 58.2 | 181 | 6.82 | – | – |
| COc1ccc(-c2cc(F)c(NC(=O)c3ccccc3C(=O)O)c(F)c2)cc1OC [Example 49, 2-(3,5-Difluoro-3′,4′-dimethoxybiphenyl-4-ylcarbamoyl)benzoic acid] | – | – | 3.95 | – | – |

| SMILES | inhibition at 1 µM (h-DHODH) [%] | IC50 (h-DHODH) [nM] | inhibition at 10 µM (IL-17) [%] | inhibition at 0.3 µM (h-DHODH) [%] | inhibition at 10 µM (h-DHODH; compound tested at 10 uM) [%] |
| --- | --- | --- | --- | --- | --- |
| O=C(O)c1ccccc1C(=O)Nc1c(F)cc(-c2cccc(OC(F)F)c2)cc1Cl [Example 44, 2-[3-Chloro-3′-(difluoromethoxy)-5-fluorobiphenyl-4-ylcarbamoyl]benzoic acid] | 71.1 | 90.6 | 35 | – | – |
| CC[S+]([O-])c1cccc(-c2cc(F)c(NC(=O)c3ccccc3C(=O)O)c(F)c2)c1 (stereo not drawn) [Example 72, 2-[3′-(ethylsulfinyl)-3,5-difluorobiphenyl-4-ylcarbamoyl]benzoic acid] | 16.9 | – | 7.36 | – | – |
| O=C(O)c1ccccc1C(=O)Nc1c(F)cc(-c2cccc(OCC(F)(F)F)c2)cc1Cl [Example 68, 2-[3-chloro-5-fluoro-3′-(2,2,2-trifluoroethoxy)biphenyl-4-ylcarbamoyl]benzoic acid] | 86.5 | 62.2 | – | – | – |
| COc1ccc(Cl)c(-c2cc(F)c(NC(=O)c3ccccc3C(=O)O)c(Cl)c2)c1 [Example 57, 2-(2′,3-Dichloro-5-fluoro-5′-methoxybiphenyl-4-ylcarbamoyl)benzoic acid] | 68.1 | – | – | – | – |
| C/C(O)=C(\C#N)C(=O)Nc1ccc(C(F)(F)F)cc1 [Teriflunomide, reference compound] | – | – | 0 | – | 77.2 |
| COc1cc(-c2cc(F)c(NC(=O)c3ccccc3C(=O)O)c(F)c2)ccc1Cl [Example 59, 2-(4′-Chloro-3,5-difluoro-3′-methoxybiphenyl-4-ylcarbamoyl)benzoic acid] | 34.5 | – | 7.36 | – | – |
| COc1ccc(-c2cc(F)c(NC(=O)c3ccccc3C(=O)O)c(Cl)c2)cc1OC [Example 56, 2-(3-Chloro-5-fluoro-3′,4′-dimethoxybiphenyl-4-ylcarbamoyl)benzoic acid] | 1.77 | – | 5.49 | – | – |
| COc1ccc(F)c(-c2cc(F)c(NC(=O)c3ccccc3C(=O)O)c(Cl)c2)c1 [Example 61, 2-(3-chloro-2′,5-difluoro-5′-methoxybiphenyl-4-ylcarbamoyl)benzoic acid] | 73.7 | – | 4.23 | – | – |
| COc1ccc(F)c(-c2cc(F)c(NC(=O)c3ccccc3C(=O)O)c(F)c2)c1 [Example 58, 2-(2′,3,5-Trifluoro-5′-methoxybiphenyl-4-ylcarbamoyl)benzoic acid] | 76.1 | – | 5.46 | – | – |
| O=C(O)c1ccccc1C(=O)Nc1c(F)cc(-c2ccc3c(c2)OCO3)cc1Cl [Example 48, 2-[4-(Benzo[d][1,3]dioxol-5-yl)-2-chloro-6-fluorophenylcarbamoyl]benzoic acid] | 47.1 | – | 22 | – | – |
| COc1cccc(-c2ccc(NC(=O)c3ccccc3C(=O)O)c(F)c2)c1 [Example 69, 2-(3-fluoro-3′-methoxybiphenyl-4-ylcarbamoyl)benzoic acid] | 22 | – | 5.54 | – | – |
| CCOc1cccc(-c2cc(F)c(NC(=O)c3c(Cl)ccc(Cl)c3C(=O)O)c(F)c2)c1 [Example 28, 3,6-dichloro-2-(3′-ethoxy-3,5-difluorobiphenyl-4-ylcarbamoyl)benzoic acid] | 12.9 | – | 18.8 | – | – |
| COc1cc(Cl)cc(-c2cc(F)c(NC(=O)c3ccccc3C(=O)O)c(Cl)c2)c1 [Example 51, 2-(3,3′-Dichloro-5-fluoro-5′-methoxybiphenyl-4-ylcarbamoyl)benzoic acid] | 26.6 | – | 10.8 | – | – |
| CCOc1cccc(-c2cc(F)c(NC(=O)c3cccc(F)c3C(=O)O)c(Cl)c2)c1 [Example 38, 2-(3-Chloro-3′-ethoxy-5-fluorobiphenyl-4-ylcarbamoyl)-6-fluorobenzoic acid] | 27.8 | – | 9.35 | – | – |
| O=C(O)c1ccccc1C(=O)Nc1c(F)cc(OCc2ccccc2)cc1F [Example 40, 2-[4-(Benzyloxy)-2,6-difluorophenylcarbamoyl]benzoic acid] | – | – | 8.79 | – | – |
| CCc1cccc(-c2cc(F)c(NC(=O)c3ccccc3C(=O)O)c(F)c2)c1 [Example 84, 2-(3′-ethyl-3,5-difluorobiphenyl-4-ylcarbamoyl)benzoic acid] | – | – | 12.1 | 36.6 | – |
| O=C(O)c1ccccc1C(=O)Nc1c(F)cc(-c2ccc3c(c2)CCO3)cc1Cl [Example 53, 2-[2-Chloro-4-(2,3-dihydrobenzofuran-5-yl)-6-fluorophenylcarbamoyl]benzoic acid] | – | – | 8.28 | – | – |

— patent US8686048B2, “Immunomodulator and anti-inflammatory compounds” (Rhizen Pharmaceuticals SA, priority 2010, dated 2014)
